Experiments:
sEH = settings: non-selective pan-esterase inhibitor used at 100 μM; ref [18]; cited from earlier work
Horse sEH [1] = target: T1, Horse sEH (Equus caballus, UniProt F7C407); test: Secondary screen (kinetic mode), PHOME substrate; type: biochemical; settings: [I] = 100 nM, secondary kinetic mode screening
Cat sEH [2] = target: T2, Cat sEH (Felis catus, UniProt A0ABI7ZL20); test: Secondary screen (kinetic mode), PHOME substrate; type: biochemical; settings: read-out: Cat sEH Inhibition (%) S.
T2 sequence (A0ABI7ZL20 entry or part of it): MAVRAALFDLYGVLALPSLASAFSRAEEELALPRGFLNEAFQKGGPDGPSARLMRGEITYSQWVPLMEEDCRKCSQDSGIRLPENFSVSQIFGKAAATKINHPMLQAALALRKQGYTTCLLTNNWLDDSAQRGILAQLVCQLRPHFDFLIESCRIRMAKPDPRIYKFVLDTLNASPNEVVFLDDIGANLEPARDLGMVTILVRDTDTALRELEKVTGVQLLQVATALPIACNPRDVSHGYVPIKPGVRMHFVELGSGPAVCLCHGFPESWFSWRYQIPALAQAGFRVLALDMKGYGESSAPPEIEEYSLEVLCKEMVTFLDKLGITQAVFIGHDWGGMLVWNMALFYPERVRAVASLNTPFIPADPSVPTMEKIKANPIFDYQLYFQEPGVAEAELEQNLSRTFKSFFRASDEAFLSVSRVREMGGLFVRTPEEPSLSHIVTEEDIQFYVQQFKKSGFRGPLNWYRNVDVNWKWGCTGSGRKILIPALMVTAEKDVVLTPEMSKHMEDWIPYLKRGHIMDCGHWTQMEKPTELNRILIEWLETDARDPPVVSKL

Cat sEH [3] = target: T2, Cat sEH; test: Primary screen (end point) of the sEH inhibitor library, PHOME substrate; type: biochemical; settings: read-out: Cat sEH Inhibition (%) P.
Experimental: (§1) Primary screening of the library was performed with an inhibitor concentration of 100 nM using PHOME as substrate ([22]). […] The plates were then mixed and incubated at 30°C for 5 min. Across each plate, 30 μL of the working substrate solution (270 μL of 5 mM PHOME solution in DMSO diluted with 3,680 μL of buffer) were added quickly to yield [S]final: 50 μM. Each plate was further incubated at room temperature (horse sEH: 60 min; cat sEH: 45 min; dog sEH: 30 min).

Horse sEH [4] = target: T1, Horse sEH; test: as above; type: biochemical; settings: [I] = 100 nM, primary end-point screening
Experimental: as §1

Dog sEH [5] = target: T3, Dog sEH (Canis lupus familiaris, UniProt A0A8I3NJL8); test: as above; type: biochemical; settings: [I] = 100 nM, primary end-point screening
T3 sequence (A0A8I3NJL8 1-556): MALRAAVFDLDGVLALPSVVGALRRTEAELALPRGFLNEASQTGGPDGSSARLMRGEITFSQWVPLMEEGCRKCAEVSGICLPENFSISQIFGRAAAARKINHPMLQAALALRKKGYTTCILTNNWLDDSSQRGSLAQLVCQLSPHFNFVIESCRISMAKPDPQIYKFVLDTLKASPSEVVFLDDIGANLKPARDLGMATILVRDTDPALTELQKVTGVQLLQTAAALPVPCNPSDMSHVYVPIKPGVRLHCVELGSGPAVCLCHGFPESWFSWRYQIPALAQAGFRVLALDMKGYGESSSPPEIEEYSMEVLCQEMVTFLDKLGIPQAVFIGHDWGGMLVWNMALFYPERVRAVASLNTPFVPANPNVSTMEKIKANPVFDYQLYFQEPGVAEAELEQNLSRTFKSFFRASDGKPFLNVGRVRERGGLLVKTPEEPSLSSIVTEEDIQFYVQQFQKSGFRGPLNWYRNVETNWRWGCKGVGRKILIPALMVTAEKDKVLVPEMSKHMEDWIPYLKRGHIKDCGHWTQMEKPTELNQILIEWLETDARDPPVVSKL
Experimental: as §1

Dog sEH [6] = target: T3, Dog sEH; test: Secondary screen (kinetic mode), PHOME substrate; type: biochemical; settings: [I] = 100 nM, secondary kinetic mode screening
Microsomal stability [7] = type: in vitro ADME, dog; settings: 1 μM inhibitor, microsomes 1 mg/mL, 37°C, 30 min, compound remaining, average ± SD (n = 3)
Experimental: (§2) The stability of the sEH inhibitors was determined using liver microsomes as described ([24]). […] After 30 min at 37°C, the reaction was stopped by the addition of one volume of methanol containing CUDA (200 nM) as surrogate. The amount of remaining inhibitor was determined by LC/MS/MS. The stability is reported as a percentage of compound remaining after 30 min in these conditions.
(§3) Mass spectrometry analyses were performed using a Waters Quattro Premier triple quadrupole tandem mass spectrometer (Micromass, Manchester, UK) interfaced to an electrospray ionization (ESI) source. The MS was coupled with a Waters Acquity UPLC (Waters, Milford, MA, USA). A Varian Pursuit5 C18 RP HPLC column (150 mm × 2.1 mm, particle size 5 μm) was used to separate the analytes. […] The source and the desolvation temperatures were set at 120 and 300°C, respectively. […] Dwell time was set to 0.1 s.

Microsomal stability [8] = type: in vitro ADME, cat
Experimental: as §2, §3

[9] = target: T4, sEH activity from liver cytosol of Hamster (Mesocricetus auratus, UniProt A0A1U7QV09); test: sEH inhibition potency (IC50), radioactive assay with [3H]t-DPPO, liver cytosol; type: biochemical; settings: [3H]t-DPPO ([S]final = 5 μM) as substrate
T4 sequence (A0A1U7QV09 1-554): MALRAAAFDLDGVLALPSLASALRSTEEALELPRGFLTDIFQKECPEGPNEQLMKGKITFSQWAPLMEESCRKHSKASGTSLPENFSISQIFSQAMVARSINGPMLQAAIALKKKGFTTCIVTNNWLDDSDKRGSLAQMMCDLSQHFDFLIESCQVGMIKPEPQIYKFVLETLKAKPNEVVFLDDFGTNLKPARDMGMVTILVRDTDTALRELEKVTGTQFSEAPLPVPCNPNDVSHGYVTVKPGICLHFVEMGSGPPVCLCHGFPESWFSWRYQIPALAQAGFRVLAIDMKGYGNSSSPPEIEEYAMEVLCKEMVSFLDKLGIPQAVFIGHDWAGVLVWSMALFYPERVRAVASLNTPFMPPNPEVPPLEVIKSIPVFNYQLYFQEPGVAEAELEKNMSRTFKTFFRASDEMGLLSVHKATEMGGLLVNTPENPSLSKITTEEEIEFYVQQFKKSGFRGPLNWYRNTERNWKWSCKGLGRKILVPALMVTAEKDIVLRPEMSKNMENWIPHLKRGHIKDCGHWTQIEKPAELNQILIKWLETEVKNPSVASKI
From the text: (§4) Fresh liver tissues samples (5–30 g) were collected promptly after death from healthy adult cat, dog and horse euthanized for reasons unrelated to this study, and whose bodies were given to science by the owners in line with federal regulations and protocol approved by the Institutional Animal Care and Use Committee at University of California Davis. Similarly, tissues from the other animals tested herein were collected from healthy animals immediately after being slaughter at the university abattoir. Because no animals were directly used or killed for this study, sample collections were exempted from approval by the Institutional Animal Care and Use Committee of the University of California Davis and Michigan State University. […] The tissues were flash-frozen in liquid nitrogen following removal, and then kept at −80°C until used. After thawing on ice, the samples were homogenized in chilled sodium phosphate buffer (20 mM pH 7.4) containing 5 mM EDTA, 1 mM DTT and 1 mM PMSF (tissue weight:buffer volume ratio 1:4). These homogenates were centrifuged at 100,000 g for 60 min at 4°C. The supernatant (the cytosolic fraction) was separated from the pellet, aliquoted and flash frozen in liquid nitrogen, then kept frozen at −80°C until usage.
(§5) The IC50 values reported herein were determined using either a fluorescent based assay (CMNPC as substrate) for purified enzyme preparations or a radioactive based assay ([^3H]t-DPPO as substrate) for crude enzyme preparations ([20]). The fluorescent assay was used with the purified proteins. […] The substrate (CMNPC) was then added ([S]final = 5 μM). […] The radioactive […] assay was used with the liver crude extracts. Extracts were incubated with inhibitors ([I]final = 1–1,000 nM) at 30° C for 5 min in sodium phosphate buffer (pH 7.4) containing 0.1 mg/mL of BSA and 1% of DMSO, prior to substrate introduction ([^3H]t-DPPO [S]final: 50 μM; ~12,000 dpm/assay). The enzymes were incubated at 30°C for 10 min, and the reaction was quenched by the addition of 60 μL methanol and 200 μL isooctane, which extracts the remaining epoxide from the aqueous phase. […] Assays were performed in triplicate.

[10] = target: sEH activity from liver cytosol of Cow (Bos taurus, UniProt Q17QK4); test: as above; type: biochemical; settings: [3H]t-DPPO ([S]final = 5 μM) as substrate
sEH activity from liver cytosol of Cow, sequence (Q17QK4 entry or part of it): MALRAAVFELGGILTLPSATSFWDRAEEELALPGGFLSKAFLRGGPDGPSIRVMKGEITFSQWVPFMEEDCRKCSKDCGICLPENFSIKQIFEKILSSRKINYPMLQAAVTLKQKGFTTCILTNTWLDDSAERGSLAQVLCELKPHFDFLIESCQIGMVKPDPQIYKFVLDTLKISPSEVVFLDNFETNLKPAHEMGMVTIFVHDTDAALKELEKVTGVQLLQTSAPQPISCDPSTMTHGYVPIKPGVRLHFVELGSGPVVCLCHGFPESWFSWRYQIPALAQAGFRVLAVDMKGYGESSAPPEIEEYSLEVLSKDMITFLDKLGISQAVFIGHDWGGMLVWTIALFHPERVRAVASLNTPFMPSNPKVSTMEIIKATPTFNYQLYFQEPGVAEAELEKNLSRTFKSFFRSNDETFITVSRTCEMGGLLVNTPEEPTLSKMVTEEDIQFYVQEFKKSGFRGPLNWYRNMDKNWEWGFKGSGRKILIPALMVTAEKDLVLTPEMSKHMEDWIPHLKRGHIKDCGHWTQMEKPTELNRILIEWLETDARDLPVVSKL
From the text: as §4, §5

Microsomal stability [11] = type: in vitro ADME, horse; settings: 1 μM inhibitor, microsomes 1 mg/mL, 37°C, 30 min, compound remaining, average ± SD (n = 3)
Experimental: as §2, §3

T1 sequence (F7C407 entry or part of it): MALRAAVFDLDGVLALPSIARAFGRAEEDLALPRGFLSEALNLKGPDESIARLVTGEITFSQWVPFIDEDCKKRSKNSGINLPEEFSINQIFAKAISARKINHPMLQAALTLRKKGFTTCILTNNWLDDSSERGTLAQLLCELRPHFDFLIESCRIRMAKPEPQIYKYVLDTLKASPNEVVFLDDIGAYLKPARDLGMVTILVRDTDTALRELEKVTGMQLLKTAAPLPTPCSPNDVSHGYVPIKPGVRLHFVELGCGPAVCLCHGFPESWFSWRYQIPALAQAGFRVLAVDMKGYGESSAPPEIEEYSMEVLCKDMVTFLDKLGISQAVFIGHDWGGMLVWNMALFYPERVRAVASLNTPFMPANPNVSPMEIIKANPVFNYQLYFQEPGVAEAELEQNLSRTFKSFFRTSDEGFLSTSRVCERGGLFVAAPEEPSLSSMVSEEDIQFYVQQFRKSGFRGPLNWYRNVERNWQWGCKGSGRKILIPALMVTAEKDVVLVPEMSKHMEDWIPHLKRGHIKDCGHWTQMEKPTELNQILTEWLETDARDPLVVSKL

CCOP(=O)(OCC)Oc1ccc([N+](=O)[O-])cc1 [Paraoxon]
inhibition of sEH (sEH): does not inhibit sEH

CC1CCCCC1NC(=O)Nc1ccccc1 (centres unmarked) [Siduron]
Horse sEH Inhibition (%) S. (Horse sEH [1]): 81% | inhibition at 0.1 µM (Cat sEH [2]): 77% | inhibition at 0.1 µM (Cat sEH [3]): 93% | Horse sEH Inhibition (%) P. (Horse sEH [4]): 92% | Dog sEH Inhibition (%) P. (Dog sEH [5]): < 90% | Dog sEH Inhibition (%) S. (Dog sEH [6]): 43%

O=C(O)CCCCCCCCCCCNC(=O)NC12CC3CC(CC(C3)C1)C2 [compound 700]
Stability (% without microsomes) Dog liver microsomes NADPH + (Microsomal stability [7]; with NADPH): 66 ± 9% | Stability (% without microsomes) Dog liver microsomes NADPH – (Microsomal stability [7]; without NADPH): 94 ± 6% | inhibition at 0.1 µM (Horse sEH [1]; read-out: Horse sEH Inhibition (%) S.): 85% | Stability (% without microsomes) Cat liver microsomes NADPH + (Microsomal stability [8]; 1 μM inhibitor, microsomes 1 mg/mL, with NADPH, 37°C, 30 min, compound remaining, average ± SD (n = 3)): 28 ± 3% | Stability (% without microsomes) Cat liver microsomes NADPH – (Microsomal stability [8]; 1 μM inhibitor, microsomes 1 mg/mL, without NADPH, 37°C, 30 min, compound remaining, average ± SD (n = 3)): 105 ± 11% | metabolism in cat liver microsomes (in words) (Microsomal stability [8]; in the presence of NADPH): quickly transformed | IC50 [9]: 5 nM | IC50 [10]: 6 nM | Stability (% without microsomes) Horse liver microsomes NADPH + (Microsomal stability [11]; with NADPH): 96 ± 9% | Stability (% without microsomes) Horse liver microsomes NADPH – (Microsomal stability [11]; without NADPH): 114 ± 15% | inhibition at 0.1 µM (Horse sEH [4]; read-out: Horse sEH Inhibition (%) P.): 94% | inhibition at 0.1 µM (Dog sEH [5]; read-out: Dog sEH Inhibition (%) P.): 92% | inhibition at 0.1 µM (Dog sEH [6]; read-out: Dog sEH Inhibition (%) S.): 80%
